Data as given in patent US20230126310A1 (priority 2020, published 2023).
Where a name gives a salt, the structure may show the parent alone. Read-outs that look alike come from different tables or passages of the source.

Legend:
SARS-CoV-2 [1] = assay: microbe, parasite or virus in culture; conditions: Severe acute respiratory syndrome coronavirus 2, Caco-2, 48 h; for inhibition at 10 µM: read-out: % Inh. (% Inhibition of SARS-CoV-2)
[2] = Compound cytotoxicity against CaCo-2 cells at 48 hours; assay type: cell-based, Human; conditions: human, CaCo-2 cells; Table 5, further results of Examples 1 and 2; mean ± spread
Procedure: The cytotoxicity of the profiled compounds towards CaCo-2 cells at 48 hours was assessed. […] After 48 hours, cytotoxicity was evaluated using both digital phase contrast readout as described above and ATP determination (Cell titre-glo, Promega Corp).

SARS-CoV-2 [3] = conditions: for % Inh. (% Inhibition of SARS-CoV-2): 10 µM

Row | Compound | % Inh. (% Inhibition of SARS-CoV-2) (SARS-CoV-2 [3]) [%] | further results
1 | C[C@@H](c1nc(-c2ccc(C#N)cc2)cs1)[C@](O)(Cn1cncn1)c1ccc(F)cc1F [ravuconazole] |  | IC50 (SARS-CoV-2 [1]): 2000 nM; inhibition at 10 µM (SARS-CoV-2 [1]): 103%; IC50 (SARS-CoV-2 [1]; read-out: pIC50 (converted)): 2000 nM; CC50 at 48 h [2]: 12.8 ± 0.84 µM
2 | CCOc1ccc(/C=C2\NCCc3cc(OCC)c(OCC)cc32)cc1OCC [drotaverine] |  | inhibition at 10 µM (SARS-CoV-2 [1]): 93.1%; CC50 at 48 h [2]: 9 ± 0.96 µM
3 | CCCCCCCCN=c1ccn(CCCCCCCCCCn2ccc(=NCCCCCCCC)cc2)cc1 [Octenidine Dihydrochloride] |  | IC50 (SARS-CoV-2 [1]): 1140 nM; inhibition at 10 µM (SARS-CoV-2 [1]): 77%; IC50 (SARS-CoV-2 [1]; read-out: pIC50 (converted)): 1150 nM; CC50 at 48 h [2]: 2.4 ± 0.09 µM
4 | Fc1ccc(-c2cncc(CN3CCN(c4cccc5c4OCCO5)CC3)c2)cc1 [Adoprazine] |  | IC50 (SARS-CoV-2 [1]): 23400 nM; inhibition at 10 µM (SARS-CoV-2 [1]): 81.4%; IC50 (SARS-CoV-2 [1]; read-out: pIC50 (converted)): 23400 nM; CC50 at 48 h [2]: 75.9 ± 54.2 µM
5 | NC(=O)N1CCC(CC(=O)N2CCC([C@H]3c4ncc(Br)cc4CCc4cc(Cl)cc(Br)c43)CC2)CC1 [Lonafarnib (SCH66336), Lonafarnib] |  | CC50 at 48 h [2]: 10.7 ± 7.39 µM
6 | Nc1cc(C(F)(F)F)c(-c2cc(N3CCOCC3)nc(N3CCOCC3)n2)cn1 [BKM120 (NVP-BKM120)] | 97.6 | 
7 | CN1C/C=C/CCOc2cccc(c2)-c2ccnc(n2)Nc2cccc(c2)C1 [SB1317] | 56.5 | 
8 | COc1ncc2cc(C(=O)Nc3cc(C(=O)NCc4cccc(Cl)c4)ccc3Cl)c(=O)[nH]c2n1 [TC-S-7004] | 77.3 | 
9 | N#CC(=C(N)Sc1ccc(N)cc1)c1ccccc1C(F)(F)F [MEK1-2-inhibitor] | 66.9 | 
10 | COc1ccc(CC2NCCc3c2[nH]c2ccc(C)cc32)c(Cl)c1OC (stereo not drawn) [LY266097] | 89.3 | 
11 | Cn1c(C#N)ccc1-c1ccc2c(c1)C(C)(C)OC(=S)N2 [Tanaproget] |  | IC50 (SARS-CoV-2 [1]): > 1000 nM; inhibition at 10 µM (SARS-CoV-2 [1]): 96.2%; IC50 (SARS-CoV-2 [1]; read-out: pIC50 (converted)): 1120 nM; IC50 (SARS-CoV-2 [3]): 1130 nM
12 | COc1ccc(CNC(=O)Nc2ncc([N+](=O)[O-])s2)cc1 [AR-A014418] | 82.3 | 
13 | c1ccc(C(NCc2cccnc2)(c2ccccc2)c2ccccc2)cc1 [UCL-2077] | 70.7 | 
14 | CCN(CC)CCCCNc1ncc2cc(-c3c(Cl)cccc3Cl)c(NC(=O)NC(C)(C)C)nc2n1 [PD-161570] | 108.1 | 
15 | CNC(=O)c1cccc(NC(=O)N2CCC(Oc3ccccc3Cl)CC2)c1 [A-939572] | 78.8 | 
16 | COC(=O)C1=C(C)NC(C)=C(C(=O)OCCSc2ccccc2)C1C (stereo not drawn) [PCA-4248] | 55.3 | 
17 | NI-57 | 78.3 | 
18 | FC(F)(F)c1ccc(CNc2ccc(Cc3c[nH]c4ncccc34)cn2)cc1 [PLX-647] | 95.7 | 
19 | Cl.Cl.Fc1ccc(C(OCCN2CCN(C/C=C/c3ccccc3)CC2)c2ccc(F)cc2)cc1 [GBR-13069] | 66.7 | 
20 | Nc1nccc(Oc2ccc(NC(=O)c3c[nH]cc(-c4ccc(F)cc4)c3=O)cc2F)c1Cl [BMS 794833] | 98.3 | 
21 | COc1cc2nc(C3CC3)nc(N3CCN(c4ccccc4OC)CC3)c2cc1OC [ML314] | 87.7 | 
22 | C=CC(=O)Nc1ccc2ncnc(Nc3cccc(Br)c3)c2c1 [PD168393] | 51.5 | 
23 | CC(C)(C)c1cc(C(=O)/C(C#N)=N/Nc2cccc(Cl)c2)no1 [ESI-09] | 78.0 | 

Row | Compound | % Inh. (% Inhibition of SARS-CoV-2) (SARS-CoV-2 [3]) [%] | further results
24 | CSc1ccccc1Nc1nc(N2CCNCC2)nc2c(NCC3CC3)ncnc12 [KHK-IN-1 (hydrochloride)] | 71.8 | 
25 | CC(C)(C)Nc1nc(Nc2ccc(C(N)=O)cc2)cc(N)c1C#N [TC-Mps1-12] | 65.3 | 
26 | O=C(NNc1nc2cc(F)ccc2n2cccc12)c1cnccn1 [SC144] | 108.7 | 
27 | COc1ccc(C[C@H]2NC[C@H](O)[C@H]2OC(C)=O)cc1 [anisomycin] | 88.1 | 
28 | CC(=O)[C@@]12O[C@](C)(c3ccccc3)O[C@@H]1C[C@H]1[C@@H]3CCC4=CC(=O)CC[C@]4(C)[C@H]3CC[C@@]12C [algestone-acetophenide] | 96.0 | 
29 | CC(C)c1ccc2c(c1)CC[C@H]1[C@](C)(CN)CCC[C@]21C [lylamine] | 76.4 | 
30 | CCOc1cc(C(C)(C)C)ccc1C1=N[C@@](C)(c2ccc(Cl)cc2)[C@@](C)(c2ccc(Cl)cc2)N1C(=O)N1CCN(CCCS(C)(=O)=O)CC1 [RG7112 (RO5045337)] | 88.5 | 
31 | Cc1cc(-c2ccc(CC(=O)Nc3ccc(-c4cccnc4)cc3)cc2)ccn1 [Wnt-C59 (C59)] | 82.3 | 
32 | COc1ccc2nc3c(c(N)c2c1)CCCC3 [7-methoxytacrine] | 58.7 | 
33 | COc1cc2ncnc(Nc3ccc(Cl)cc3F)c2cc1OC [ZM-306416] | 77.9 | 
34 | c1cc2c(cc1C1CCCCC1)c1c3n2CCNC3CCC1 (stereo not drawn) [tetrindole] | 75.2 | 
35 | Cc1cc(=O)oc2c(C=O)c(O)ccc12 [4-mu-8C] | 106.2 | 
36 | Cc1nc(NC(=O)N2CCC[C@H]2C(N)=O)sc1-c1csc(C(C)(C)C)n1 [A66] | 54.4 | 
37 | C[n+]1c2cc(N)ccc2cc2ccc(N)cc21.[Cl-] [ACRIFLAVINIUM HYDROCHLORIDE] |  | % Inh. (% Inhibition of SARS-CoV-2) (SARS-CoV-2 [3]; HYDROCHLORIDE): 99.5%; % Inh. (% Inhibition of SARS-CoV-2) (SARS-CoV-2 [3]; listed as Acriflavine hydrochloride, HYDROCHLORIDE): 69.4%
38 | CCc1ccccc1OC[C@@H](O)CN[C@H]1CCCc2ccccc21 [SR-59230A] | 57.3 | 
39 | C=C[C@@]1(C)CC(=O)[C@]2(O)[C@@]3(C)[C@@H](O)CCC(C)(C)[C@@H]3[C@H](OC(=O)CCN(C)C)[C@H](OC(C)=O)[C@@]2(C)O1 [colforsin-daproate] | 80.3 | 
40 | CCOc1cc(C(=O)Nc2ccc(Cl)c(-c3nc4ccccc4[nH]3)c2)cc(OCC)c1OCC [SANT-2] | 84.1 | 
41 | COc1ccc(-c2ccc3c(N4CCOC[C@@H]4C)nc(N4CCOC[C@@H]4C)nc3n2)cc1CO [AZD8055] | 105.2 | 
42 | Tocofersolan | 95.2 | 
43 | O=C(Nc1ccc(S(=O)(=O)C(F)(F)F)cc1)C1=CCN(c2ncccc2C(F)(F)F)CC1 [A-784168] | 60.3 | 
44 | Nizofenone fumarate | 52.4 | 
45 | CN1c2cc3c(cc2N=C(c2ccc(C(=O)O)cc2)c2ccccc21)C(C)(C)CCC3(C)C [LE-135] | 105.5 | 
46 | CCCCN1C[C@H](O)[C@@H](O)[C@H](O)[C@H]1CO [Miglustat (n-Butyldeoxynojirimycin)] | 64.4 | 
